Measurements from ChEMBL document CHEMBL1782028, “Evaluation of structurally diverse neuronal nicotinic receptor ligands for selectivity at the alpha6( *) subtype” (Bioorg Med Chem Lett, 2009).

Tests used:
[1] = molecular target: T1, Neuronal acetylcholine receptor subunit alpha-3/beta-4 (Mus musculus, UniProt Q8R493+Q8R4G9); assay: Activity at alpha3beta4* nAChR in mouse interpeduncular nucleus assessed as [3H]ACh release by scintillation counting relative to control; assay type: tissue-based
[2] = Selectivity ratio, ratio of EC50 for alpha3beta4* nAChR in mouse to EC50 for alpha4beta2*nAChR in mouse
[3] = Selectivity ratio, ratio of EC50 for alpha3beta4* nAChR in mouse to EC50 for alpha6beta2*nAChR in mouse
[4] = molecular target: T2, Nicotinic acetylcholine receptor alpha-4/beta-2 (Mus musculus, UniProt Q8R493+Q9ERK7); assay: Displacement of [125I]epibatidine from alpha4beta2* nAChR in C57BL/6J mouse cortical membrane by gamma counting; assay type: cell membranes
T2 sequence (Q9ERK7 whole entry): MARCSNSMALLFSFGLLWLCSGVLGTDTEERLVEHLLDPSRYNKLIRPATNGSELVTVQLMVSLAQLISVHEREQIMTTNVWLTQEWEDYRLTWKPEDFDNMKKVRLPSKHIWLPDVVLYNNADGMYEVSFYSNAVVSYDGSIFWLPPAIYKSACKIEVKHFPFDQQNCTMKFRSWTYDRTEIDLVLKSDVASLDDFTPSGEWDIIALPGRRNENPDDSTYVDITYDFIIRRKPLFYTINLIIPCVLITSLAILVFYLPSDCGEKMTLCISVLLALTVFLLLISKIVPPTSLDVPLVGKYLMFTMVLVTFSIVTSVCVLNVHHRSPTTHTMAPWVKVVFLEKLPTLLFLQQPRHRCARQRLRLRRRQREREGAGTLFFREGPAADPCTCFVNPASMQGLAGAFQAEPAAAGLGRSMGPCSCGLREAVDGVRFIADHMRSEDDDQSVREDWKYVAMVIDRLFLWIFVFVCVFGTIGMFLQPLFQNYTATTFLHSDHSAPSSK
T2 sequence (Q8R493 whole entry): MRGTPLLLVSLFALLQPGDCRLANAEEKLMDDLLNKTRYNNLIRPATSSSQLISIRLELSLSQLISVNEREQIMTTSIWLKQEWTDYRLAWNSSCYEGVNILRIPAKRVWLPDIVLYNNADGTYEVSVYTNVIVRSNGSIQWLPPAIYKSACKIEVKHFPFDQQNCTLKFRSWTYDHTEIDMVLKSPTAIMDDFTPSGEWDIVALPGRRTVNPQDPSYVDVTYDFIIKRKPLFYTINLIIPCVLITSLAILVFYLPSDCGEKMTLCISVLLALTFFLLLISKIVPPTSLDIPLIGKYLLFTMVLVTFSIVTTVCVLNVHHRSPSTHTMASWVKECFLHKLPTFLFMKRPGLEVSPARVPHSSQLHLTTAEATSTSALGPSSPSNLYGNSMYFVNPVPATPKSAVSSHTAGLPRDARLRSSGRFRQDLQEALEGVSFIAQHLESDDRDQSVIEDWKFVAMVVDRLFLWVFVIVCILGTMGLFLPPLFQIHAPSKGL

[5] = molecular target: Neuronal acetylcholine receptor subunit alpha-7 (Mus musculus, UniProt P49582); assay: Displacement of [125I]alpha-bungarotoxin from alpha7 nAChR in C57BL/6J mouse hippocampal membrane; assay type: tissue-based, Hippocampus
Neuronal acetylcholine receptor subunit alpha-7, sequence (P49582 whole entry): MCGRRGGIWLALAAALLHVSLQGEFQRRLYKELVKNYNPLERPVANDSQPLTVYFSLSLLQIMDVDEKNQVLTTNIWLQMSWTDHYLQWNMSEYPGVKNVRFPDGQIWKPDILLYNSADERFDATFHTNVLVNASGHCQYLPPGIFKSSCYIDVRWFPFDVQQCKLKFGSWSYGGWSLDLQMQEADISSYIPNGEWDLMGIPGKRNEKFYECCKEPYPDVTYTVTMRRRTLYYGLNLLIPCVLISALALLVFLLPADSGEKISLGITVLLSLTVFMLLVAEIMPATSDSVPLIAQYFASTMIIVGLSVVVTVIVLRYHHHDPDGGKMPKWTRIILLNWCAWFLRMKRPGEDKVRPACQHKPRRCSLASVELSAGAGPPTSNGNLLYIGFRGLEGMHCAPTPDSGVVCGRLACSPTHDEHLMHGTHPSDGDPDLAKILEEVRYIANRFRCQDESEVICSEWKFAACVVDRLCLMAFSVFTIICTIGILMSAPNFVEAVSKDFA

[6] = molecular target: T3, Neuronal acetylcholine receptor subunit alpha-6/beta-2 (Mus musculus, UniProt Q9ERK7+Q9R0W9); assay: Displacement of [125I]-alpha-Conotoxin MII from alpha6beta2* nAChR in mouse olfactory tubercles, striatum and superior coliculus; assay type: tissue-based, Olfactory tubercle
T3 sequence (Q9ERK7 whole entry): as the sequence (Q9ERK7 whole entry) above
T3 sequence (Q9R0W9 whole entry): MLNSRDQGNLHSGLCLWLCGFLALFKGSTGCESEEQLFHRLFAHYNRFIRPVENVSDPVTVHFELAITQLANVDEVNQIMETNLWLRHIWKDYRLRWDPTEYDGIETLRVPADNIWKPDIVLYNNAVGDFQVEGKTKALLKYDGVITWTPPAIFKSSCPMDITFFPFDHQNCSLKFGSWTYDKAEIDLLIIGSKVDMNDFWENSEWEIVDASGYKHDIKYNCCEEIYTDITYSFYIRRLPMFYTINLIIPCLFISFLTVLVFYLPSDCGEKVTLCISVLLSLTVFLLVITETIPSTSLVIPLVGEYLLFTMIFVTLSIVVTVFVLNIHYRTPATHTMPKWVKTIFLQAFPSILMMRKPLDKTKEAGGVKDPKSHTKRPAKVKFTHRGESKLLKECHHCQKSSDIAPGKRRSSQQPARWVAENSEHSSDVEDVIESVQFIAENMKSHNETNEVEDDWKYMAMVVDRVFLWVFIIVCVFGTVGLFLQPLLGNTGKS

[7] = molecular target: T2, Nicotinic acetylcholine receptor alpha-4/beta-2; assay: Activity at alpha4beta2*nAChR in mouse striatal synaptosomes assessed as alpha-conotoxic MII-resistant DA release; assay type: subcellular, Brain
[8] = molecular target: Nicotinic acetylcholine receptor alpha-4/beta-2 (Mus musculus) (UniProt Q9ERK7+Q8R493); assay: Activity at alpha4beta2*nAChR in mouse striatal synaptosomes assessed as alpha-conotoxic MII-resistant DA release relative to control; assay type: subcellular; conditions: Brain
[9] = molecular target: Neuronal acetylcholine receptor subunit alpha-4/alpha-6/beta-2/beta-3 (Mus musculus, UniProt O70174+Q8BMN3+Q9ERK7+Q9R0W9); assay: (§1) Activity at alpha6alpha4beta3beta2 nAChR in mouse striatal synaptosomes assessed as alpha-conotoxic […] DA release; assay type: subcellular, Brain
Neuronal acetylcholine receptor subunit alpha-4/alpha-6/beta-2/beta-3 (Mus musculus, UniProt O70174+Q8BMN3+Q9ERK7+Q9R0W9), sequence (Q9ERK7 whole entry): as the sequence (Q9ERK7 whole entry) above
Neuronal acetylcholine receptor subunit alpha-4/alpha-6/beta-2/beta-3 (Mus musculus, UniProt O70174+Q8BMN3+Q9ERK7+Q9R0W9), sequence (O70174 whole entry): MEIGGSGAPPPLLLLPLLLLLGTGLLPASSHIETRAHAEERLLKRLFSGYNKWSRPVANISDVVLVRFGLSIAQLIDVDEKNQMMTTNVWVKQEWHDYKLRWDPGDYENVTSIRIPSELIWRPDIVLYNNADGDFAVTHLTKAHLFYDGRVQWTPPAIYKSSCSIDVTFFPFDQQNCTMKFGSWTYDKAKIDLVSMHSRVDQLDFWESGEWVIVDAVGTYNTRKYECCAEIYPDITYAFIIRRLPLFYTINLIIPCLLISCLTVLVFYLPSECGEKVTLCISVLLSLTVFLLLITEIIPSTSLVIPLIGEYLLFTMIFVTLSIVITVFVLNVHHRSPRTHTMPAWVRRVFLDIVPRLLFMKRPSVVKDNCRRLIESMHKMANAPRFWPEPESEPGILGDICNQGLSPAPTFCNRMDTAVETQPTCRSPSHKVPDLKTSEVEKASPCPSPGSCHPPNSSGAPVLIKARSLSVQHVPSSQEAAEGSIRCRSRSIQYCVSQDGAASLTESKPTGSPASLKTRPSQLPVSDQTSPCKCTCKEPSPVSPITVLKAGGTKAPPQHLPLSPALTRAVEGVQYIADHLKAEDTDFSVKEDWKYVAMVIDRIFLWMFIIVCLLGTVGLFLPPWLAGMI
Neuronal acetylcholine receptor subunit alpha-4/alpha-6/beta-2/beta-3 (Mus musculus, UniProt O70174+Q8BMN3+Q9ERK7+Q9R0W9), sequence (Q9R0W9 whole entry): as the sequence (Q9R0W9 whole entry) above
Neuronal acetylcholine receptor subunit alpha-4/alpha-6/beta-2/beta-3 (Mus musculus, UniProt O70174+Q8BMN3+Q9ERK7+Q9R0W9), sequence (Q8BMN3 whole entry): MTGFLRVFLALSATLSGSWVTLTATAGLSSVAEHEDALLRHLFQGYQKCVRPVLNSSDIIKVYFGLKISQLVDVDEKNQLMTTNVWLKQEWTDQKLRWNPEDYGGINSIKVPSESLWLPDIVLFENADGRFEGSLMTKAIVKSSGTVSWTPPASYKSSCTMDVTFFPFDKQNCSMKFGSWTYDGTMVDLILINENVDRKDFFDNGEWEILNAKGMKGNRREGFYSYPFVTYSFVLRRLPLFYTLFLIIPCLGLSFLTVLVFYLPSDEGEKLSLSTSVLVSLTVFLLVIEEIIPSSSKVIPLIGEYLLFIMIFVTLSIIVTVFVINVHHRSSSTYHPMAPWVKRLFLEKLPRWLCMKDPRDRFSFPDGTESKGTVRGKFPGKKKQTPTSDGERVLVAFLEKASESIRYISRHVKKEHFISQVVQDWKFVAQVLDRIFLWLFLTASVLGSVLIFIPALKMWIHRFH

[10] = molecular target: Neuronal acetylcholine receptor subunit alpha-4/alpha-6/beta-2/beta-3 (Mus musculus) (UniProt Q9ERK7+O70174+Q9R0W9+Q8BMN3); assay: Activity at alpha6alpha4beta3beta2 nAChR in mouse striatal synaptosomes assessed as alpha-conotoxic […] DA release relative to control; assay type: subcellular; conditions: Brain
[11] = molecular target: T1, Neuronal acetylcholine receptor subunit alpha-3/beta-4; assay: Activity at alpha3beta4* nAChR in mouse interpeduncular nucleus assessed as [3H]ACh release by scintillation counting; assay type: tissue-based
[12] = Selectivity ratio, ratio of EC50 for alpha3beta4* nAChR in mouse to Ki for alpha4beta2*nAChR in mouse
[13] = Selectivity ratio, ratio of EC50 for alpha3beta4* nAChR in mouse to Ki for alpha6beta2*nAChR in mouse
[14] = molecular target: T3, Neuronal acetylcholine receptor subunit alpha-6/beta-2; assay: Inhibition of mouse alpha6alpha4beta3beta2 nAChR; assay type: protein-complex assay
[15] = molecular target: Neuronal acetylcholine receptor subunit alpha-4/alpha-6/beta-2/beta-3 (Mus musculus, UniProt Q9ERK7+O70174+Q9R0W9+Q8BMN3); assay: as §1; assay type: subcellular, Brain
Neuronal acetylcholine receptor subunit alpha-4/alpha-6/beta-2/beta-3 (Mus musculus, UniProt Q9ERK7+O70174+Q9R0W9+Q8BMN3), sequence (Q9ERK7 whole entry): as the sequence (Q9ERK7 whole entry) above
Neuronal acetylcholine receptor subunit alpha-4/alpha-6/beta-2/beta-3 (Mus musculus, UniProt Q9ERK7+O70174+Q9R0W9+Q8BMN3), sequence (O70174 whole entry): as the sequence (O70174 whole entry) above
Neuronal acetylcholine receptor subunit alpha-4/alpha-6/beta-2/beta-3 (Mus musculus, UniProt Q9ERK7+O70174+Q9R0W9+Q8BMN3), sequence (Q9R0W9 whole entry): as the sequence (Q9R0W9 whole entry) above
Neuronal acetylcholine receptor subunit alpha-4/alpha-6/beta-2/beta-3 (Mus musculus, UniProt Q9ERK7+O70174+Q9R0W9+Q8BMN3), sequence (Q8BMN3 whole entry): as the sequence (Q8BMN3 whole entry) above

T1 sequence (Q8R493 whole entry): as the sequence (Q8R493 whole entry) above
T1 sequence (Q8R4G9 whole entry): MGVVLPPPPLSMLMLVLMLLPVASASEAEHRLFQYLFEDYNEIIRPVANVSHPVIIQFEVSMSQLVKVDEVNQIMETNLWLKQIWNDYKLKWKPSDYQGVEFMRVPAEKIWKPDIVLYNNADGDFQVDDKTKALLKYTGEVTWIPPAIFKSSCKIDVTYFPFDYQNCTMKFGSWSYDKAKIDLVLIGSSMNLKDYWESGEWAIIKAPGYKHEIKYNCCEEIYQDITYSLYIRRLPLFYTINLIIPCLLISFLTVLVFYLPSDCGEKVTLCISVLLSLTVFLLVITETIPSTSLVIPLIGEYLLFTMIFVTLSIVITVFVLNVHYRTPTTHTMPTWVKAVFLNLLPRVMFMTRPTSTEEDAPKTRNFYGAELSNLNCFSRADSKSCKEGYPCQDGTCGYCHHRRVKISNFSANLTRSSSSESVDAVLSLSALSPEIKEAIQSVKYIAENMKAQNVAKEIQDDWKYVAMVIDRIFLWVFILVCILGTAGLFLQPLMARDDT

Structure (SMILES)	EC50 [1]	Ratio EC50 [2]	Ratio EC50 [3]	Ki [4]	Ki [5]	Ki [6]	EC50 [7]	Emax [8]	EC50 [9]	Emax [10]	Emax [11]	Ratio [12]	Ratio [13]	Imax [8]	Imax [10]	Ki [14]	EC50 [15]
CN1C2C=C(c3cccnc3)CC1CC2.Cl.Cl (stereo not given)	21 µM	6.2	105	0.0098 µM	2.11 µM	0.055 µM	3.4 µM	75%	0.2 µM	50%	71%	–	–	–	–	–	–
O=C(O)C(F)(F)F.c1ncc(CC2CC3CCN2CC3)cn1 (stereo not given)	28 µM	–	–	0.059 µM	2.59 µM	0.115 µM	–	–	–	–	106%	87.5	11.2	92%	91%	2.5 µM	–
c1cncc(C2CC3CCN2CC3)c1 (stereo not given)	–	–	–	–	–	–	–	29%	–	–	–	–	–	–	–	–	–
CN1C2C=C(c3cncnc3)CC1CC2.O=C(O)C(F)(F)F (stereo not given)	41 µM	22.7	410	0.0012 µM	9.1 µM	0.017 µM	1.8 µM	45%	0.1 µM	77%	35%	–	–	–	–	–	–
C(#C[C@H]1CCCN1)c1cccnc1.O=C(O)[C@@H](O)[C@H](O)[C@H](O)[C@@H](O)C(=O)O	5.6 µM	0.4	8	0.02 µM	0.733 µM	0.242 µM	13 µM	120%	0.7 µM	42%	81%	–	–	–	–	–	–
O=C(O)C(F)(F)F.c1ncc(C2CC3CCN2CC3)cn1 (stereo not given)	2.4 µM	5.3	26.7	0.0018 µM	1.1 µM	0.008 µM	0.45 µM	43%	0.09 µM	104%	95%	–	–	–	–	–	–
C(#C[C@H]1CCCN1)c1cncnc1	34 µM	–	–	0.03 µM	5.77 µM	0.34 µM	3.2 µM	64%	1.2 µM	134%	74%	–	–	–	–	–	–
C(=C\[C@@H]1CCNC1)/c1cncnc1.O=C(O)[C@@H](O)[C@H](O)[C@H](O)[C@@H](O)C(=O)O	161 µM	8.5	304	0.024 µM	> 10 µM	0.325 µM	19 µM	133%	0.53 µM	48%	97%	–	–	–	–	–	–
c1cncc(CC2CC3CCN2CC3)c1 (stereo not given)	–	–	–	–	–	–	–	–	–	–	–	–	–	–	96%	–	–
C(#C[C@H]1CCCN1)c1cncnc1.O=C(O)[C@@H](O)[C@H](O)[C@H](O)[C@@H](O)C(=O)O	–	10.6	28	–	–	–	–	–	–	–	–	–	–	–	–	–	–
CNCC/C=C/c1cncnc1.O=C(O)[C@@H](O)[C@H](O)[C@H](O)[C@@H](O)C(=O)O	9.5 µM	1.6	0.26	0.069 µM	> 10 µM	1.06 µM	5.9 µM	73%	37 µM	80%	4%	–	–	–	–	–	–
C(=C\[C@@H]1CCNC1)/c1cccnc1.O=C(O)C(F)(F)F	16 µM	3.6	20	0.011 µM	3.16 µM	0.184 µM	4.4 µM	109%	0.8 µM	66%	58%	–	–	–	–	–	–
CNCC/C=C/c1cccnc1.O=C(O)[C@@H](O)[C@H](O)[C@H](O)[C@@H](O)C(=O)O	218 µM	26	–	0.025 µM	> 10 µM	1.55 µM	8.3 µM	122%	–	0%	45%	–	–	–	–	–	Not Active
